{"source": "patent US8350077B2", "about": "(VERTEX Closed Joint Stock Company, priority 2008, dated 2013)", "key": {"[1]": {"experiment": "Stability of Creatine amides in human blood plasma (RP-HPLC peak areas, 37° C.)", "experimental": "The detection was carried out on the wave length 220 nm. The samples dosing on the column was carried out by the loop 20 μl.\n(§1) For the study of Creatine amides stability, 1 ml of water or blood plasma was added to 200 μl of aqueous solution of starting amide with a concentration of 2÷3 mg/ml then shaken; a probe volume of 200 μl was taken up immediately and analysis of an initial concentration of the Creatine amide was carried out. Further, the solution was placed into a vibro-thermostat at a temperature of 37° C., then aliquote 200 μl was taken up in 0.5, 1, and 3 hours of thermostatics. 20 μl 10% solution of trichloroacetic acid was added to the taken probe, and kept for 15 min at temperature (−)24° C., then centrifuged at 6000×g for 5 minutes for sedimentation of plasma proteins, supernatant was taken up and its analysis was carried out.\n(§2) For evaluation of samples' stability, peak areas of a corresponding compound at the beginning of experiment and at selected time intervals were compared (Tables 1, 2)."}, "[2]": {"settings": "dosages up to 30 g for a few days, per os; cited from earlier work"}, "[3]": {"experiment": "Stability of Creatine amides in rat blood plasma (RP-HPLC peak areas, 37° C.)", "experimental": "Study of the Creatine derivatives stability in aqueous solution, as well as in human and rat blood plasma was carried out by the method of Reversed Phase HPLC using a chromatography system, known as Beckman System Gold™ (USA) in the following configuration: Programmable Solvent Module 126, Manual Injector Rheodyne 7725i, Programmable Detector Module 166, featured with the Beckman System Gold Chromatography Software™. The analysis was carried out on the column Luna 5μ C18(2) 100 Å 150×4.6 mm (Phenomenex, USA) with the precolumn Guard Cartridge C18 at the flow rate 1 ml/min in the linear gradient of acetonitrile: for analogue from the Example 1 from 5 to 25% of acetonitrile in 20 min (A: 0.1% of […]—H2O, B: 0.1% of H3PO4-acetonitrile), in case of substance from the Examples 2÷8: from 3 to 23% of acetonitrile in 20 minutes. The detection was carried out on the wave length 220 nm. The samples dosing on the column was carried out by the loop 20 μl.\nas §1, §2"}, "[4]": {"settings": "peak area relative to start, 37° C."}}}
{"smiles": "CN(CC(=O)OCc1ccccc1)C(=N)N", "note": "[Creatine benzyl ester, reference compound]", "values": [{"measurement": "Decrease of concentration in human blood plasma", "setting": "[1]; during 0.75 hours", "result": 53, "unit": "%"}, {"measurement": "remaining at 0.75 h", "setting": "[1]; human, blood plasma", "result": 53, "unit": "%"}, {"measurement": "remaining at 3 h", "setting": "[1]; human, blood plasma", "result": 46, "unit": "%"}, {"measurement": "Stability in human blood plasma, 0 h", "setting": "[1]; [4]", "result": 100, "unit": "%"}]}
{"smiles": "CN(CC(=O)O)C(=N)N.O", "note": "[Creatine monohydrate]", "values": [{"measurement": "Increase of the total Creatine content in a human's skeleton muscles", "setting": "[2]", "result": "more than 20%"}]}
{"smiles": "CC(=O)O.CCOC(=O)CCCNC(=O)CN(C)C(=N)N", "note": "[Example 1, Creatinyl-γ-Aminobutyric Acid Ethyl Ester Acetate]", "values": [{"measurement": "Stability in human blood plasma, 0 h", "setting": "[1]; [4]", "result": 100, "unit": "%"}, {"measurement": "Stability in human blood plasma, 0.5 h", "setting": "[1]; [4]", "result": 99, "unit": "%"}, {"measurement": "Stability in human blood plasma, 1 h", "setting": "[1]; [4]", "result": 103, "unit": "%"}, {"measurement": "Stability in human blood plasma, 3 h", "setting": "[1]; [4]", "result": 104, "unit": "%"}, {"measurement": "Stability in a rat blood plasma, 0 h", "setting": "[3]; [4]", "result": 100, "unit": "%"}, {"measurement": "Stability in a rat blood plasma, 0.5 h", "setting": "[3]; [4]", "result": 96, "unit": "%"}, {"measurement": "Stability in a rat blood plasma, 1 h", "setting": "[3]; [4]", "result": 98, "unit": "%"}, {"measurement": "Stability in a rat blood plasma, 3 h", "setting": "[3]; [4]", "result": 99, "unit": "%"}]}
{"smiles": "CN(CC(=O)N[C@@H](Cc1ccccc1)C(N)=O)C(=N)N.O", "note": "[Example 2, Creatinyl-L-Phenylalanine Amide Hydrate]", "values": [{"measurement": "Stability in human blood plasma, 0 h", "setting": "[1]; human, plasma", "result": 100, "unit": "%"}, {"measurement": "Stability in human blood plasma, 0.5 h", "setting": "[1]; human, plasma", "result": 99, "unit": "%"}, {"measurement": "Stability in human blood plasma, 1 h", "setting": "[1]; human, plasma", "result": 99, "unit": "%"}, {"measurement": "Stability in human blood plasma, 3 h", "setting": "[1]; human, plasma", "result": 100, "unit": "%"}, {"measurement": "Stability in a rat blood plasma, 0 h", "setting": "[3]; rat, plasma", "result": 100, "unit": "%"}, {"measurement": "Stability in a rat blood plasma, 0.5 h", "setting": "[3]; rat, plasma", "result": 100, "unit": "%"}, {"measurement": "Stability in a rat blood plasma, 1 h", "setting": "[3]; rat, plasma", "result": 97, "unit": "%"}, {"measurement": "Stability in a rat blood plasma, 3 h", "setting": "[3]; rat, plasma", "result": 98, "unit": "%"}]}
{"smiles": "CC(=O)O.CN(CC(=O)N[C@@H](Cc1ccccc1)C(N)=O)C(=N)N", "note": "[Example 3, Creatinyl-L-Phenylalanine Amide Acetate]", "values": [{"measurement": "Stability in human blood plasma, 0 h", "setting": "[1]; human, plasma", "result": 100, "unit": "%"}, {"measurement": "Stability in human blood plasma, 0.5 h", "setting": "[1]; human, plasma", "result": 100, "unit": "%"}, {"measurement": "Stability in human blood plasma, 1 h", "setting": "[1]; human, plasma", "result": 100, "unit": "%"}, {"measurement": "Stability in human blood plasma, 3 h", "setting": "[1]; human, plasma", "result": 100, "unit": "%"}, {"measurement": "Stability in a rat blood plasma, 0 h", "setting": "[3]; rat, plasma", "result": 100, "unit": "%"}, {"measurement": "Stability in a rat blood plasma, 0.5 h", "setting": "[3]; rat, plasma", "result": 96, "unit": "%"}, {"measurement": "Stability in a rat blood plasma, 1 h", "setting": "[3]; rat, plasma", "result": 98, "unit": "%"}, {"measurement": "Stability in a rat blood plasma, 3 h", "setting": "[3]; rat, plasma", "result": 99, "unit": "%"}]}
{"smiles": "CN(CC(=O)NCC(=O)OCc1ccccc1)C(=N)N.Cl", "note": "[Example 4, Creatinyl-Glycine Benzyl Ester Hydrochloride]", "values": [{"measurement": "Stability in human blood plasma, 0 h", "setting": "[1]; human, plasma", "result": 100, "unit": "%"}, {"measurement": "Stability in human blood plasma, 0.5 h", "setting": "[1]; human, plasma", "result": 98, "unit": "%"}, {"measurement": "Stability in human blood plasma, 1 h", "setting": "[1]; human, plasma", "result": 100, "unit": "%"}, {"measurement": "Stability in human blood plasma, 3 h", "setting": "[1]; human, plasma", "result": 99, "unit": "%"}, {"measurement": "Stability in a rat blood plasma, 0 h", "setting": "[3]; rat, plasma", "result": 100, "unit": "%"}, {"measurement": "Stability in a rat blood plasma, 0.5 h", "setting": "[3]; rat, plasma", "result": 99, "unit": "%"}, {"measurement": "Stability in a rat blood plasma, 1 h", "setting": "[3]; rat, plasma", "result": 99, "unit": "%"}, {"measurement": "Stability in a rat blood plasma, 3 h", "setting": "[3]; rat, plasma", "result": 96, "unit": "%"}]}
{"smiles": "CCOC(=O)CNC(=O)[C@H](CCCNC(=N)N)NC(=O)[C@H](Cc1ccccc1)NC(=O)CN(C)C(=N)N", "note": "[Example 7, Creatinyl-Phenylalanyl-Arginyl-Glycine Ethyl Ester Acetate]", "values": [{"measurement": "remaining at 0.5 h", "setting": "[1]; human, plasma", "result": 94, "unit": "%"}, {"measurement": "remaining at 1 h", "setting": "[1]; human, plasma", "result": 90, "unit": "%"}, {"measurement": "remaining at 3 h", "setting": "[1]; human, plasma", "result": 85, "unit": "%"}, {"measurement": "Stability in human blood plasma, 0 h", "setting": "[1]; human, plasma", "result": 100, "unit": "%"}, {"measurement": "remaining at 0.5 h", "setting": "[3]; rat, plasma", "result": 93, "unit": "%"}, {"measurement": "remaining at 1 h", "setting": "[3]; rat, plasma", "result": 92, "unit": "%"}, {"measurement": "remaining at 3 h", "setting": "[3]; rat, plasma", "result": 85, "unit": "%"}, {"measurement": "Stability in a rat blood plasma, 0 h", "setting": "[3]; rat, plasma", "result": 100, "unit": "%"}]}
{"smiles": "CN(CC(=O)N[C@@H](Cc1ccccc1)C(=O)O)C(=N)N.Cl", "note": "[Example 8, Creatinyl-Phenylalanine hydrochloride]", "values": [{"measurement": "Stability in human blood plasma, 0 h", "setting": "[1]; [4]", "result": 100, "unit": "%"}, {"measurement": "Stability in human blood plasma, 0.5 h", "setting": "[1]; [4]", "result": 99, "unit": "%"}, {"measurement": "Stability in human blood plasma, 1 h", "setting": "[1]; [4]", "result": 98, "unit": "%"}, {"measurement": "Stability in human blood plasma, 3 h", "setting": "[1]; [4]", "result": 97, "unit": "%"}, {"measurement": "Stability in a rat blood plasma, 0 h", "setting": "[3]; [4]", "result": 100, "unit": "%"}, {"measurement": "Stability in a rat blood plasma, 0.5 h", "setting": "[3]; [4]", "result": 98, "unit": "%"}, {"measurement": "Stability in a rat blood plasma, 1 h", "setting": "[3]; [4]", "result": 98, "unit": "%"}, {"measurement": "Stability in a rat blood plasma, 3 h", "setting": "[3]; [4]", "result": 95, "unit": "%"}]}
